The values that follow come from PMC2827657 (Biochemistry, 2010).

The term Kd denotes the constant that tells how readily two partners part at equilibrium. A low value points to tighter binding.

One data set deals with apo NSMOA (Pseudomonas sp, UniProt O50214). The data set is described as follows: biochemical.
Data set [1] deals with NSMOA (Pseudomonas putida, UniProt O33471). The data set is described as follows: Linkage relationships of ligand binding and redox equilibria of NSMOA. Details: species or system Pseudomonas putida S12.
For data set [2] the following is noted: cited from earlier work.
The target in data set [3] is NSMOA (Pseudomonas sp, UniProt O50214). As to the kind of experiment: Stopped-flow fluorescence kinetics of oxidized FAD binding to NSMOA. Set-up: species or system Pseudomonas putida S12. To be noted: 280 μM NSMOA mixed with 50 μM FAD, 25°C, four-exponential fit.
Chain of NSMOA (Pseudomonas sp, UniProt O50214) (O50214 whole entry): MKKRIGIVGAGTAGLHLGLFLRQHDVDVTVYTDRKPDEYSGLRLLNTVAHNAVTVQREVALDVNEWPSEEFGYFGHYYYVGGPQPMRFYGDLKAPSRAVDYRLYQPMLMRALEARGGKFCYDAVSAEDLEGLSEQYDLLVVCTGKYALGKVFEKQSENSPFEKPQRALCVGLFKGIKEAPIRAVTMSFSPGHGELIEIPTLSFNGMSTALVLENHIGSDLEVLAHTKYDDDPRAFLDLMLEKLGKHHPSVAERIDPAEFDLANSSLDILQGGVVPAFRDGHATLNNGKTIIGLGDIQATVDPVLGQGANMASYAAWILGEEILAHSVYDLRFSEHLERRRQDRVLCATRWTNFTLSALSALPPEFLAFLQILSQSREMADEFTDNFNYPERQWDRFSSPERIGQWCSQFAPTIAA
For a further data set, the system named is P. putida S12. The conditions noted are these: growth of P. putida S12; cited from earlier work.
Where [4] appears, read: calculated from linkage relationships.

Chain of apo NSMOA (O50214 whole entry): as above

As for `c1ccccc1` [benzene, reference compound], the Kd at apo NSMOA turned out to be 4.2 ± 0.37 mM. For the same molecule, the “positive cooperative interaction of benzene and reduced FAD binding (Kd1/Kd7)” value at NSMOA [1] (benzene affinity for reduced-FAD complex of NSMOA relative to comparison state) is about 2 fold. Besides, at NSMOA [1] (relative to oxidized FAD cooperativity), the “decrease in cooperativity of substrate-analog and reduced-FAD binding equilibria” value is on record as 30 fold.

With `Cc1cc2nc3c(=O)[nH]c(=O)nc-3n(C[C@H](O)[C@H](O)[C@H](O)COP(=O)(O)OP(=O)(O)OC[C@H]3O[C@@H](n4cnc5c(N)ncnc54)[C@H](O)[C@@H]3O)c2cc1C` [oxidized FAD, flavin adenine dinucleotide], the “Em1, solution potential of free FAD” value in data set [2] is given as -212 mV. Moreover, at NSMOA [1] (setting [4]), the “equilibrium midpoint potential of FAD bound to benzene-bound NSMOA” value is reported as -142 mV and the “equilibrium midpoint potential of FAD bound to benzene-free NSMOA” value was -97 mV. Besides, at NSMOA [3], the “rate constant k1” value was 265 s⁻¹, the “rate constant k2” value stood at 120 s⁻¹, the “rate constant k3” value worked out at 21 s⁻¹ and the “rate constant k4” value was 0.34 s⁻¹.

As to `C=Cc1ccccc1` [styrene], the “styrene concentration at which growth is inhibited” value with P. putida S12 is “greater than 300 μM”.
